Measurements taken from ChEMBL document CHEMBL2176928, “Discovery of novel inhibitors of amyloid β-peptide 1-42 aggregation” (J Med Chem, 2012).
The source made the active and inactive calls. The calls are words filed in the database; no cut-off is given here.

Assays:
[1] = Inhibition of aggregation of amyloid beta (17 to 40) assessed as fibril formation at 100 uM measured up to 10 hrs by turbidimetry assay
[2] = Cytotoxicity against human HeLa cells after 24 hrs by XTT assay; format: cell-based
[3] = Inhibition of aggregation of amyloid beta (17 to 40) assessed as fibril formation at 100 uM measured up to 24 hrs by transmission electron microscopic analysis
Saccharomyces cerevisiae [4] = assay: Toxicity in yeast harboring erg6delta expressing human DHFR-fused amyloid beta (1 to 42) at 10 uM; format: organism-based; settings: in vivo
[5] = Inhibition of aggregation of amyloid beta (17 to 40) assessed as fibril formation at 100 uM measured up to 13 hrs by high throughput thioflavin-T binding assay
[6] = molecular target: Amyloid-beta precursor protein (Homo sapiens) (UniProt P05067); assay: Inhibition of aggregation of human DHFR-fused amyloid beta (1 to 42) expressed in yeast harboring erg6delta assessed as increase in yeast viability measured up to 20 hrs in presence of MTX
[7] = Toxicity in Podospora anserina expressing GFP-fused amyloid beta (1 to 42) assessed as effect on lifespan and growth rate of fungi at 100 uM
[8] = Lipophilicity, log P of the compound; format: physicochemical; settings: octanol/water
[9] = Inhibition of aggregation of GFP-fused amyloid beta (1 to 42) expressed in Podospora anserina assessed as reduction of amyloid beta SDS-resistant oligomers at 50 uM after 10 hrs to 5 days by SDS-PAGE and Western blot analysis
[10] = molecular target: Amyloid-beta precursor protein (Homo sapiens) (UniProt P05067); assay: Inhibition of aggregation of human DHFR-fused amyloid beta (1 to 42) expressed in yeast harboring erg6delta assessed as increase in yeast viability at 10 uM measured up to 20 hrs in presence of MTX
[11] = Inhibition of aggregation of GFP-fused amyloid beta (1 to 42) expressed in Podospora anserina assessed as reduction of amyloid beta SDS-resistant oligomers at 100 uM after 24 hrs by SDS-PAGE and Western blot analysis
[12] = Elongation of aggregates of GFP-fused amyloid beta (1 to 42) expressed in Podospora anserina extract assessed as reduction of amyloid beta SDS-resistant oligomers after 1 hr by SDS-PAGE and Western blot analysis
[13] = Inhibition of aggregation of GFP-fused amyloid beta (1 to 42) expressed in Podospora anserina assessed as reduction of amyloid beta SDS-resistant oligomers at 50 uM after 24 hrs by SDS-PAGE and Western blot analysis
[14] = Toxicity in Podospora anserina expressing GFP-fused amyloid beta (1 to 42) assessed as effect on lifespan and growth rate of fungi at 50 uM
Saccharomyces cerevisiae [15] = assay: Toxicity in yeast harboring erg6delta expressing human DHFR-fused amyloid beta (1 to 42) at 100 uM; format: organism-based; settings: in vivo

Amyloid-beta precursor protein (Homo sapiens), sequence (P05067 whole entry, the tested form may be a part): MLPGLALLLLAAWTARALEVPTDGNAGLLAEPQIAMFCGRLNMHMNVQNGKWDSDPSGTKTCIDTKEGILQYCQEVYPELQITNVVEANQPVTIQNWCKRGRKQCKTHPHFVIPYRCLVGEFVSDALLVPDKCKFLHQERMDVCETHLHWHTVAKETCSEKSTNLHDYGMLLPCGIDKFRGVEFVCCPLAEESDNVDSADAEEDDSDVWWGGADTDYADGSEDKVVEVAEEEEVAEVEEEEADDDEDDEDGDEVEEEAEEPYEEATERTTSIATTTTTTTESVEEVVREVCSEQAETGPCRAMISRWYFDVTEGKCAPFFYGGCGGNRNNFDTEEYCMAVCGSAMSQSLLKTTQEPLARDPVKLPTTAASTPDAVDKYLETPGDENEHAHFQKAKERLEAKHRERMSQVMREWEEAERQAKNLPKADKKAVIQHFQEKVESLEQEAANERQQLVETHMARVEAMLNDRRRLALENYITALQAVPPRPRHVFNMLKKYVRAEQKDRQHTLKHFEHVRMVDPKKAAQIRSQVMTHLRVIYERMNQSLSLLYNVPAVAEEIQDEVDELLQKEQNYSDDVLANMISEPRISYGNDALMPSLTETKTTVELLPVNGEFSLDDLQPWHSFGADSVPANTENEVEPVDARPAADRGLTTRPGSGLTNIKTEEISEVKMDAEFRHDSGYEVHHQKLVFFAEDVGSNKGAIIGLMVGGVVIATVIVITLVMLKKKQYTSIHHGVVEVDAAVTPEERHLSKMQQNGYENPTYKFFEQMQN

Compound | inhibition [1] | inhibition [3] | inhibition [5] | logP [8] | inhibition [9] | inhibition [11] | Activity [12] | inhibition [13] | MCC at 24 h [2] [µM] | Activity (Saccharomyces cerevisiae [4]) | inhibition [6] | Activity [7] | inhibition [10] | Activity [14] | Activity (Saccharomyces cerevisiae [15])
CCCCC(CC)CNC(=N)NC(=N)NCCCCCCNC(=N)NC(=N)NCC(CC)CCCC.Cl.Cl (configuration not stated) [ALEXIDINE DIHYDROCHLORIDE] | Active | Active | Active |  |  |  |  |  | 2 | Toxic |  |  |  |  | 
Cc1nc2sc3c(c2c(=O)o1)CCCC3 | Active | Active | Active | 2.8 | Active | inactive | inactive |  | 184 |  | Dose-dependent effect | Toxic | Active |  | 

The next lines start with results.

inhibition [1] | inhibition [3] | inhibition [5] | logP [8] | inhibition [9] | inhibition [11] | Activity [12] | inhibition [13] | Compound | MCC at 24 h [2] [µM] | Activity (Saccharomyces cerevisiae [4]) | inhibition [6] | Activity [7] | inhibition [10] | Activity [14] | Activity (Saccharomyces cerevisiae [15])
Active | Active | Active | 3.3 |  |  | inactive | inactive | Nc1c(S(=O)(=O)c2ccc(Cl)cc2)cnc2cc(-c3ccccc3)nn12 | 22 |  |  |  |  | Non-toxic | Toxic
Active | Active | Active | 3.9 | Active |  | inactive | Active | O=S(=O)(Nc1ccc(N2CCCCC2)cc1)c1cc(Cl)sc1Cl | 17 |  | Dose-dependent effect |  | Active | Non-toxic | 
Active | Active | Active | 3.7 | Active |  | inactive | inactive | O=C(Nc1ccccc1)Nc1ccc(Cl)cc1[N+](=O)[O-] | 20 |  |  |  | Active | Toxic | Toxic
